Here are results for six compounds from article PMC6984391, “Anion carriers as potential treatments for cystic fibrosis: transport in cystic fibrosis cells, and additivity to channel-targeting drugs” (Chemical Science, 2019).

Each structure is given as a SMILES string. Entries after “also recorded” stand apart in the source; their conditions may differ. Bounds are passed on as bounds.

The test system of one data set is YFP-CFBE cells. In words: XTT cell viability assay in YFP-CFBE cells. The class given is cell-based. The note with it: for cytotoxicity in YFP-CFBE cells (XTT): 1–50 μM, 18 h at 37 °C; for IC50: XTT, 18 h treatment, fit of first order regression (Fig. S23), read-out: half-maximal inhibitory concentration (IC50), cell viability. The method, then: For cytotoxicity studies, we used YFP-CFBE and YFP-FRT cells. YFP-CFBE cells were seeded in 96-well plates at a density of 5 x 10^4 cells/well and cultured at 37 °C in a humidified atmosphere of 5% CO2. Thirty hours after seeding the cells, different concentrations of anionophores were added to the culture media and the cells were incubated with anionophores for 18 h. To assay cell viability, we used the XTT Cell Proliferation Assay Kit (ATCC) according to the manufacturer’s instructions. The specific absorbance of test samples was measured using a Microplate Spectrophotometer (SpectraMax 190, Molecular Devices, Sunnyvale, CA, USA). In each experiment, multiple replicates (12 – 25 wells from 3 – 5 plates) were tested for each concentration of anionophore. […]
To evaluate the cytotoxicity of anionophores 11, 12, 15 and 19, we treated YFP-CFBE cells with the anionophores (1 – 50 µM) in DMSO for 18 h at 37 °C before assessing cell viability using sodium 2,3, -bis(2-methoxy-4-nitro-5-sulfophenyl)-5-[(phenylamino)-carbonyl]-2H-tetrazolium) (XTT). Figure S23 summarises the resu lts. Although compounds […]
(1 picture or pasted object on this page, not shown here)

On the set-up of data set [1]: method as in PMID 22461434, PMID 21846096, PMID 29786913. The following applies: mol% carrier to lipid for 50% Cl^– efflux in 270 s; 490 mM NaCl inside, 490 mM NaNO3 outside; ref [22], [16 and 25]; cited from earlier work.
Data set [2] in a line: Affinity to Cl- in chloroform by extraction of Et4N+Cl- from water. The format is binding. The note with it: extraction of Et4N^+Cl^– from water into chloroform at 303 K; new compound or new data. The method, then:
Measurement of affinities to Et4N+Cl- in chloroform through extraction from […]
This method is adapted from Clare et al..4 The Et4N+Cl- salt was obtained from Sigma Aldrich and dried under vacuum overnight prior to solution preparation using deionised water that had been passed through a Millipore filtration system. All host solutions were prepared using chloroform that had been deacidified by passage through a flash chromatography column containing basic alumina.
A solution of host in deacidified chloroform was combined with 10 mL of aqueous Et4N+Cl-guest solution in a sample tube (30 mL). Concentrations and volumes are specified in Table
S1. A magnetic stirring bar (2 cm) was added to the tube and the lower half was immersed in a water bath heated to 303 K, while the contents were stirred vigorously to achieve good mixing of the two phases. After 30 minutes, stirring was stopped and the two phases were allowed to separate. The majority of the aqueous phase was then removed using a pipette and the remaining organic phase was centrifuged for 10 minutes at 4000 rpm. The chloroform solution was then filtered through Whatman 1PS hydrophobic filter paper to remove any remaining aqueous phase. Solvent from the filtrate was then removed in vacuo and the solid was further dried under vacuum. The resulting solids from the extraction experiments were dissolved in acetone-d6 and the solutions were analysed with 1H NMR spectroscopy.
A value for the molar ratio (R) was determined by integrating the signal at δ = 3.5 ppm (CH2 of Et4N+Cl-) against one of the receptor signals.
The values for R obtained from the 1H NMR spectra were used to calculate values for the equilibrium extraction constants Ke:
Horg + Xaq− + Yaq+ ⇌HX−Yorg+ Ke = org […]
To convert the extraction constants Ke into association constants Ka it is necessary to obtain the distribution constants Kd for the substrates between aqueous and organic phases:
The Kd value for tetraethylammonium chloride partitioning between water and chloroform has been determined and reported previously to be 1.269 × 10-5 M-1.5
The binding constant Ka is then calculated from Ke and Kd:
H + X−Y+ ⇌ HX−Y+ K = org = e […]
When [G] > 100 mM, the amount of salt that migrates from the aqueous phase into the organic phase without assistance of the host has to be taken into account by correcting the measured […]
Table S1. Overview of the conditions and results from the extraction experiments Receptor [H] (mM) [G] (mM) Vorg (mL) Vaq (mL) Rmeasured Ka (M-1)

Turning to `CCOC(=O)[C@]12CC[C@@H](NC(=S)Nc3cc(C(F)(F)F)cc(C(F)(F)F)c3)C[C@@H]1C[C@@H](NC(=S)Nc1cc(C(F)(F)F)cc(C(F)(F)F)c1)CC2` [Compound 15], in the data set on YFP-CFBE cells, the “cytotoxicity in YFP-CFBE cells (XTT)” value is on record as “some cytotoxicity” and the IC50 was more than 50 µM. On to `FC(F)(F)c1ccc(NC(=S)NCCN(CCNC(=S)Nc2ccc(C(F)(F)F)cc2)CCNC(=S)Nc2ccc(C(F)(F)F)cc2)cc1` [Compound 18], for which the “EC50, 270 s” value in data set [1] was 0.077 mol%. The “K a to Cl^– in CHCl3” value in data set [2] is listed as 1.5 × 10^7 ^b M^–1. In the case of `COCCOCCOC(=O)[C@]12CC[C@@H](NC(=O)Nc3cc(C(F)(F)F)cc(C(F)(F)F)c3)C[C@@H]1C[C@@H](NC(=O)Nc1cc(C(F)(F)F)cc(C(F)(F)F)c1)CC2` [Compound 10], the “K a to Cl^– in CHCl3” value in data set [2] was 2.5 × 10^8 M^–1. Still for that read-out and setting: then `CCCCCCCCOC(=O)[C@]12CC[C@@H](NC(=S)Nc3ccc([N+](=O)[O-])cc3)C[C@@H]1C[C@@H](NC(=S)Nc1ccc([N+](=O)[O-])cc1)CC2` [Compound 13], with 1.5 × 10^9 M^–1. Take `FC(F)(F)c1cc(NC(=S)NCCN(CCNC(=S)Nc2cc(C(F)(F)F)cc(C(F)(F)F)c2)CCNC(=S)Nc2cc(C(F)(F)F)cc(C(F)(F)F)c2)cc(C(F)(F)F)c1` [Compound 19]: in data set [1], the “EC50, 270 s” value is recorded as 0.042 mol%. The “K a to Cl^– in CHCl3” value in data set [2] is given as 1.5 × 10^9 ^b M^–1. In the data set on YFP-CFBE cells, the “cytotoxicity in YFP-CFBE cells (XTT)” value is on record as “some cytotoxicity; also recorded: strongest effect” and the IC50 came to 38 µM. `COCCOCCOC(=O)[C@]12CC[C@@H](NC(=O)Nc3ccc(C(F)(F)F)cc3)C[C@@H]1C[C@@H](NC(=O)Nc1ccc(C(F)(F)F)cc1)CC2` [Compound 9]: the “K a to Cl^– in CHCl3” value in data set [2] is 1.4 × 10^8 M^–1.
